For data set [1], the system named is Hela. The experiment in a line: Cell proliferation assay (CCK8), Hela. Format: cell-based. The following applies: Homo sapiens, cells incubated with compounds for 24 h. As for the experimental part: (§1) CCK8 is much more convenient and helpful than MTT for analyzing cell proliferation, because it can be reduced to soluble formazan by dehydrogenase in mitochondria and has little toxicity to cells. Cell proliferation was determined using CCK8 dye (Beyotime Inst. Biotech., Nanjing, China) according to the manufacturer's instructions. Briefly, 1–5 × 10^3 cells per well were seeded on a 96-well plate, and grown at 37 °C for 12 h. Subsequently, cells were treated with all synthesized compounds at increasing concentrations in the presence of 10% FBS for 24 h. After addition of 10 μL CCK8 dyeto each well, cells were incubated at 37 °C for 2 h and plates were read on a Victor-V multilabel counter (Perkin-Elmer, Männedorf, Switzerland) using the default […]. Percent inhibition or IC50 values of compounds were calculated by comparison with DMSO-treated control wells.

The subject of data set [2] is HepG2. In words: Cell proliferation assay (CCK8), HepG2. The format is cell-based. As for the experimental part:
as §1

The subject of data set [3] is A431. The experiment in a line: Cell proliferation assay (CCK8), A431. The following applies: Homo sapiens, A-431, cells incubated with compounds for 24 h. Format: cell-based. As for the experimental part:
as §1

In data set [4] the target is T1, EGFR (Homo sapiens, UniProt P00533).
T1 construct: EGFR cytoplasmic domain (EGFR-CD, amino acids 645–1186); (His)6 (N); made in house; host or cells: Sf-9 insect cells (baculovirus)
T1 sequence (P00533 669-1210): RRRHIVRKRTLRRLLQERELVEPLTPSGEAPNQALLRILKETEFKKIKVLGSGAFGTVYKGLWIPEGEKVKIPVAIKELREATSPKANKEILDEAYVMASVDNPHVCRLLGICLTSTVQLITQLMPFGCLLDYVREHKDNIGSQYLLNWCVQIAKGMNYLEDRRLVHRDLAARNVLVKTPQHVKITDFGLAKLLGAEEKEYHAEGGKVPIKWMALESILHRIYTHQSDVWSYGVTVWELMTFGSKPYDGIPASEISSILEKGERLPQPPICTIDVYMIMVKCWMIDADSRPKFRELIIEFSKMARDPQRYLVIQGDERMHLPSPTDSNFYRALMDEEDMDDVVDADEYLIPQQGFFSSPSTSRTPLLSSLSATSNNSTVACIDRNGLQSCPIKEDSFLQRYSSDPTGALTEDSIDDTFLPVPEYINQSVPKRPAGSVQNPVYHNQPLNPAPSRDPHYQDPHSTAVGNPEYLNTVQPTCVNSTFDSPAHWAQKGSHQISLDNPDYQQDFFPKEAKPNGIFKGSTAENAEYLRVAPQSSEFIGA
The experiment in a line: EGFR kinase autophosphorylation assay (DELFIA/Time Resolved Fluorometry). Format: biochemical. The following applies: enzyme incubated with compounds for 70 min. As for the experimental part:
A sequence that encodes (His)6 was located at the 5' upstream to the EGFR sequences. Sf-9 cells were infected for 3 days for protein expression. Sf-9 cell pellets were solubilized at 0 °C in a buffer at pH 7.4 containing 50 mM HEPES, 10 mM NaCl, 1% Triton, 10 μM ammonium molybdate, 100 μM sodium vanadate, 10 μg/mL aprotinin, 10 μg/mL leupeptin, 10 μg/mL pepstatin, and 16 μg/mL benzamidine HCl for 20 min followed by 20 min centrifugation. Crude extract supernatant was passed through an equilibrated Ni-NTA superflow packed column and washed with 10 mM and then 100 mM imidazole to remove nonspecifically bound material. Histidine tagged proteins were eluted with 250 and 500 mM imidazole and dialyzed against 50 mM NaCl, 20 mM HEPES, 10% glycerol, and 1 μg/mL each of aprotinin, leupeptin, and pepstatin for 2 h. The entire purification procedure was performed at 4 °C or on ice.
EGFR kinase assays was set up to assess the level of autophosphorylation based on DELFIA/Time Resolved Fluorometry. […] In each well, 10 μL compound was incubated with 10 μL (5 ng for EGFR) recombinant enzyme (1:80 dilution in 100 mM HEPES) for 10 min at room temperature. Then, 10 μL of 5× buffer (containing 20 mM HEPES, 2 mM MnCl2, 100 μM Na3VO4, and 1 mM DTT) and 20 μL of 0.1 mM ATP-50 mM MgCl2 were added for 1 h. Positive and negative controls were included in each plate by incubation of enzyme with or without ATP-MgCl2.
At the end of incubation, liquid was aspirated, and plates were washed three times with wash buffer. A 75 μL (400 ng) sample of europium labeled anti-phosphotyrosine antibody was added to each well for another 1 h of incubation. After washing, enhancement solution was added and the signal was detected by Victor (Wallac Inc., Männedorf, Switzerland) with excitation at 340 nm and emission at 615 nm. The percentage of autophosphorylation inhibition by the compounds was calculated using the following equation: 100% − [[…]] (1)
The IC50 was obtained from curves of percentage inhibition with eight concentrations of compound.

Data set [5] concerns HepG2 cell. In words: Apoptosis assay by flow cytometry (AnnexinV-FITC/PI). Format: cell-based. As for the experimental part: Approximately 10^5 cells/well were plated in a 24 well plate and allowed to adhere. After 24 h, the medium was replaced with fresh culture medium containing compounds D9 at final concentrations of 4, 6, 8 μM. Nontreated wells received an equivalent volume of ethanol (<0.1%). They were trypsinized, washed in PBS and centrifuged at 2,000 rpm for 5 min. The pellet was then resuspended in 500 μL of staining solution (containing 5 μL AnnexinV-FITC and 5 μL PI in Binding Buffer), mixed gently and incubated for 15 min at room temperature (15–25 °C) in dark. The sample were then read in FACScalibur flow cytometer (BD Company, New Jersey, USA) at 488 nm excitation.
In general terms: In flow cytometry, cells or beads pass a laser one at a time.

Data set [6] concerns HepG2 cell migration. In words: Cell migration assay (Trans well). As to conditions: 0.06, 0.08, 0.1 μM, 24 h. Format: cell-based. Here is the method: A cell migration assay was conducted as described previously (Qian et al.), with a slight modification. In brief, the cells were serum-starved overnight, and the transwells were coated with […] (ECL) cell attachment matrix (Upstate Biotechnology, Lake Placid, NY, USA) at 20 μg/mL. The top chambers of transwells were loaded with 0.2 mL of cells (4 × 10^5 cells/mL) in serum-free media, and the bottom chambers were loaded with 0.6 mL of MEM media containing 0.5% FBS. The cells were incubated in the transwells at 37 °C in 5% CO2 for 24 h. A microplate reader was used to measure the optical density of the eluted solutions in order to determine their migration values. Mean values were obtained from three individual experiments.

What is called IC50 is the point on the concentration scale where inhibition reaches its midpoint. A word on the melting point: it is the temperature, or range, at which the solid turns liquid. `CCOc1ccc(NC(=O)/C=C/c2ccc3c(c2)OCCCCO3)cc1` [Compound D9, (E)-N-(4-ethoxyphenyl)-3-(2,3,4,5-tetrahydrobenzo[b][1,4]dioxocin-8-yl)acrylamide] gave a melting point of 137 to 139 °C. The IC50 in data set [1] is 6.75 µM. The IC50 in data set [2] (Homo sapiens, HepG2, cells incubated with compounds for 24 h, CCK8) worked out at 0.79 µM. Moreover, the “effect on HepG2 cell survival ratios (CCK8 assay)” value in data set [2] (concentrations lower than 0.1 μM) is recorded as “no effect”. Moreover, the IC50 in data set [3] turned out to be 7.03 µM. Besides, the IC50 in data set [4] was 0.36 µM. In data set [5] (HepG2, 4 μM), the “percentage of cell apoptosis” value came to 17.99%. In data set [5] (HepG2, 6 μM), the “percentage of cell apoptosis” value was 26.83%. Moreover, the “percentage of cell apoptosis” value in data set [5] (HepG2, 8 μM) is given as 41.1%. Moreover, the “amount of migrating HepG2 cells vs control” value in data set [6] was “less than control group”.

The record behind these values is paper PMC6271756, “Synthesis of Caffeic Acid Amides Bearing 2,3,4,5-Tetra-hydrobenzo[b][1,4]dioxocine Moieties and Their Biological Evaluation as Antitumor Agents” (Molecules, 2014).
